# Tests used:
# [1] = HCA cytotoxicity toward infected macrophages (nuclear staining); assay type: cell-based, murine; details: mouse, RAW264.7 macrophages infected with S. Typhimurium, infected RAW264.7 cells, read-out: 50% cytotoxic concentration (CC50) toward macrophages
# Description: Overnight cultures of RFP-expressing S. Typhimurium were prepared for infection by 1:100 dilution in fresh LB broth and incubation for 2 h at 37°C. The bacteria were then collected by centrifugation at 6,000 × g for 3 min and suspended in phosphate-buffered saline (PBS; pH 7.2) to an optical density of 0.6 at 600 nm, which was equivalent to 5 × 10^8 CFU/mL. RAW264.7 macrophages were seeded in 96-well black clear-bottom plates (Greiner) and incubated for 20 h followed by infection with RFP-expressing S. Typhimurium at a multiplicity of infection (MOI) of 50 for 1 h. […] Afterward, the cells were washed and stained with CellTracker Green (Thermo Fisher Scientific) for 30 min in serum-free DMEM followed by fixation in 3.7% formaldehyde (Sigma-Aldrich) for 20 min and stained with 0.2 mg/L DAPI (4′,6-diamidino-2-phenylindole; AAT Bioquest) for 30 min. Images of individual wells were captured and analyzed using a high-content imaging system (ImageXpress Micro 4; Molecular Devices). The CC50 and 50% effective concentration (EC50) values against intracellular bacteria of each compound were determined using CalcuSyn software (Biosoft).
# [2] = tested on: S. Typhimurium ATCC 14028; assay: Analysis of bacterial susceptibility to H2O2 (CFU); assay type: cell-based, Salmonella enterica serovar Typhimurium; details: SW14 0.5 μM, 1 h
# Description: Overnight-grown S. Typhimurium cultured in LB medium were diluted 1:50 in LPM medium or LB medium followed by incubation at 37°C for 3 h. The bacterial suspension was adjusted to an OD600 of 0.2 in fresh LPM medium or LB medium, exposed to SW14 and H2O2 for 1 h at 37°C with agitation, then serially diluted 10-fold in PBS, and spread on LB agar plates. After incubation at 37°C for 18 h, the number of colonies was counted, and the results are expressed as CFU/mL.
compound,measurement,setting,value
Clc1ccc2c(c1)C(NCCN1CCNCC1)=Nc1ccccc1O2 [SW14],CC50 at 24 h,[1],23.5 µM
same,susceptibility of S. Typhimurium to H2O2,[2]; minimal LPM medium,significantly increased
same,susceptibility of S. Typhimurium to H2O2,[2]; nutrient-rich LB broth,not in nutrient-rich LB broth

# From PMC8635125, “A Novel Dibenzoxazepine Attenuates Intracellular Salmonella Typhimurium Oxidative Stress Resistance” (Microbiology Spectrum, 2021)
